Holding throughout (assay type): ADME, organism-based
Series [1] can be described thus: Volume of distribution at steady state in rat at 1 mg/kg, iv and 2 mg/kg, po. To be noted: in vivo, read-out: Vdss.
Series [2] in a line: Cmax in rat at 2 mg/kg, po. On the set-up: dose 2 mg/kg, route oral. The settings on record: in vivo.
Series [3] is described as follows: Oral bioavailability in rat at 2 mg/kg. To be noted: in vivo.

`COc1ccc2c(c1)CC(C(=O)Nc1ccc(-c3cn[nH]c3)cc1OCCN(C)C)CO2` (centres undefined): the Vd in series [1] was found to be 1.7 L/kg. In series [2], this molecule showed a peak concentration (Cmax) of 320 nM. Also, the bioavailability in series [3] came out at 35%.

Consider `CN(C)CCOc1cc(-c2cn[nH]c2)ccc1NC(=O)C1COc2ccccc2C1` (centres undefined), for which, in series [1], the Vd came out at 4.6 L/kg. In addition, in series [2], the Cmax was 170 nM. The bioavailability in series [3] stood at 33%.

With `CN(C)CCOc1cc(-c2cn[nH]c2)ccc1NC(=O)C1COc2ccc(F)cc2C1` (centres undefined), the Vd in series [1] stood at 5.9 L/kg. Also, the highest level in series [2] (Cmax) was 100 nM. Further, the bioavailability in series [3] turned out to be 27%.

These data come from ChEMBL document CHEMBL1141010, “Chroman-3-amides as potent Rho kinase inhibitors” (Bioorg Med Chem Lett, 2008).
